Read-outs that look alike come from different tables or passages of the source.
Assays:
[1] = system: ZIKV Puerto Rico strain (PRVABC59); assay: ZIKV CPE MTS assay in human neuroblastoma (U251) cells; type: cell-based, Zika virus; conditions: for EC50: U251 cells
Protocol: (§1) […] Cell cytopathic effect (CPE) MTS assay (CellTiter 96@k) AQueous One Solution Cell Proliferation Promega kit, Promega) was measured four (Vero) or five (U251 or Huh7) days after compound addition to determine the levels of replication inhibition.

[2] = system: ZIKV Puerto Rico strain (PRVABC59); assay: ZIKV CPE MTS assay in Huh7 cells; type: cell-based, Zika virus; conditions: Huh7 cells
Protocol: as §1

ZIKV PRVABC59 = assay: Combination of SSZ with control 1, ZIKV CPE assay in Vero cells; type: cell-based, Zika virus; conditions: Vero cells pretreated 18-20 h, MOI 0.01 PRVABC59, read-out: EC50, drug alone, ZIKV CPE assay
Protocol: Vero cells were pretreated for 18-20 h with SSZ (fixed concentrations of 300, 200 or 100 μM) plus control 1 (10, 5, 2.5 and 0.25 μM) prior to infection with MOI 0.01 PRVABC59 (drugs were replenished right after infection).
Drug-drug interactions were analyzed by using CalcuSyn (Biosoft, Ferguson, MO) computer software: 300, 200, and 100 μM SSZ in the presence of 10, 5, 2.5, and 0.25 μM of control 1 was evaluated versus each drug alone for each drug concentration. The interpretation of Combination Index (CI) values are as follows: Antagonism: CI value>1.0, Additive effect: CI value=1.0; Synergism: CI value=<1.0.

[3] = system: ZIKV Puerto Rico strain (PRVABC59); assay: ZIKV CPE MTS assay in Vero cells; type: cell-based, Zika virus; conditions: Vero cells
Protocol: as §1

[4] = human, in vivo; cited from earlier work
[5] = system: baby hamster kidney (BHK) cells
DENV-2 replicon = DENV-2 replicon model; type: cell-based; conditions: Dengue virus, DENV2
DENV-2 [6] = assay: DENV-2 Huh-7 infectious assay; type: cell-based; conditions: Dengue virus, DENV2, Huh-7
HCV = HCV activity test; type: cell-based
WNV replicon = WNV replicon model; type: cell-based; conditions: West Nile virus
Norovirus = Norovirus activity test; type: cell-based
DENV-2 [7] = assay: DENV-2 VERO infectious assay; type: cell-based, Dengue virus; conditions: for EC50: Dengue virus, DENV2, Vero
Zika virus = assay: Zika-infected Vero cell model, 4G2 antibody staining, FACS; type: cell-based; conditions: 72 h, MOI 0.1, Day 3, FACS, read-out: percent inhibition of Zika-infected Vero cells
Protocol: At 8 AM on Day 1, 10,000 cells/well were plated in a 96 well plate. At 2 PM, MOI 0.1 Zika virus was added. At 3 PM, virus inoculum was removed, and various concentrations of drug-containing medium was added, at multiple concentrations (duplicates of […]).
On Day 3, supernatants were harvested, and frozen for later RT-PCR confirmation. Cells were harvested, stained with 4G2 antibody, and intracellular virus was quantified with FACS. The EC50/EC90 were then calculated.
Concentrations of 10, 1, 0.1, 0.01 μM were assayed in duplicate for 10 total drugs. All cells were harvested, but the only cells stained with antibody were those contacted with the following compounds, in the listed concentrations:
All gates were established using uninfected cells as a control, and were maintained for all test conditions.

[8] = Cytotoxicity MTT assay in CEM cells; type: cell-based; conditions: human, CEM lymphoblastoid cells
Excerpt: (§2) The toxicity of the compounds can be assessed in Vero, human PBM, CEM (human lymphoblastoid), and can be assessed in MT-2, and HepG2 cells, as described previously (see Schinazi R. F., Sommadossi J.-P., Saalmann V., Cannon D. L., Xie M.-Y., Hart G. C., Smith G. A. & Hahn E. F. Antimicrob. Agents Chemother. 1990, 34, 1061-67). Cycloheximide can be included as positive cytotoxic control, and untreated cells exposed to solvent can be included as negative controls. The cytotoxicity (IC50) can be obtained from the concentration-response curve using the median effective method described previously (see Chou T.-C. & Talalay P. Adv. Enzyme Regul. 1984, 22, 27-55; Belen'kii M. S. & Schinazi R. F. Antiviral Res. 1994, 25, 1-11).

[9] = Cytotoxicity MTT assay in Huh7 cells; type: cell-based; conditions: human
[10] = Cytotoxicity MTT assay in Vero cells; type: cell-based; conditions: African green monkey
Excerpt: as §2

[11] = Cytotoxicity MTT assay in PBM cells; type: cell-based; conditions: human, PHA-stimulated human PBM cells
Protocol: v) Cellular Toxicity Assays: Nucleoside and nucleoside monophosphate prodrugs can be evaluated for their potential toxic effects on P4/R5 cells, MT-2 cells and uninfected PHA-stimulated human PBM cell. Log-phase P4/R5, MT-2, and PHA-stimulated human PBM cells can be seeded at 5×10^3 to 5×10^4 cells/well in 96-well cell culture plates containing 10-fold serial dilutions of the test drug. The cultures can be incubated for 2-4 days, after which 3-(4,5-dimethylthiazol-2-yl)-2,5-diphenyltetrazolium bromide (MTT) dye solution (Promega, Madison, WI) can be added to each well and incubated overnight. The reaction can be stopped with stop solubilization solution (Promega, Madison, WI) and plates can be read at a wavelength of 570 nm. The median 50% cytotoxic concentration (CC50) can be determined from the concentration-response curve using the median effect method.
as §2

[12] = Cytotoxicity MTT assay in HepG2 cells; type: cell-based; conditions: human
Excerpt: as §2

## C[C@@]1(O)[C@H](O)[C@@H](CO)O[C@H]1n1cc(F)c2cnc(N)nc21 [Control 1, beta-D-2′-C—Me-2-amino-7-fluoro-7-deazapurine ribose, reference compound]
[1]; no pretreat, read-out: ZIKV-CPE MTS Assay EC50, μM, U251, No pretreat
  EC50: 3.5 µM
[1]; pretreated 18-20 h before infection, read-out: ZIKV-CPE MTS Assay EC50, μM, U251, Pretreat
  EC50: 4 µM
[2]; no pretreat, read-out: ZIKV-CPE MTS Assay EC50, μM, Huh7, No pretreat
  EC50: 0.4 µM
[2]; pretreated 18-20 h before infection, read-out: ZIKV-CPE MTS Assay EC50, μM, Huh7, Pretreat
  EC50: 0.5 µM
ZIKV PRVABC59
  EC50: 5.4 µM
[3]; no pretreat, read-out: ZIKV-CPE MTS Assay EC50, μM, Vero, No pretreat
  EC50: 0.8 µM
[3]; pretreated 18-20 h before infection, read-out: ZIKV-CPE MTS Assay EC50, μM, Vero, Pretreat
  EC50: 0.4 µM

## O=C(O)c1cc(/N=N/c2ccc(S(=O)(=O)Nc3ccccn3)cc2)ccc1O [Sulfasalazine]
[4]
  doses taken without side effects: up to 4 g/day
  safety in pregnancy: safe for a person to take while pregnant
[5]
  Toxicity in baby hamster kidney (BHK) cells: > 100 µM
  toxicity in culture (no toxicity up to): > 100 µM
DENV-2 replicon
  EC50: 8.3 µM
DENV-2 replicon; at 30 μM
  inhibition at 30 µM: 77.4%
DENV-2 [6]
  EC50: 22.2 µM
  EC90: 61.9 µM
[1]; Zika virus, U-251, no pretreat, read-out: ZIKV-CPE MTS Assay EC50, μM, U251, No pretreat
  EC50: 385 µM
[1]; Zika virus, U-251, pretreated 18-20 h before infection, read-out: ZIKV-CPE MTS Assay EC50, μM, U251, Pretreat
  EC50: 318 µM
HCV
  effect on HCV (no effect observed up to): > 100 µM
WNV replicon
  EC50: 9.9 µM
  EC90: 78.3 µM
WNV replicon; at 30 μM
  inhibition at 30 µM: 78.5%
Norovirus
  effect on Norovirus (no effect observed up to): > 100 µM
DENV-2 [7]
  EC50: > 100 µM
DENV-2 [7]; Vero, concentration not given
  % inhibition, DENV-2 in Vero cells: < 1%
[2]; Zika virus, Huh-7, no pretreat, read-out: ZIKV-CPE MTS Assay EC50, μM, Huh7, No pretreat
  EC50: 255 µM
[2]; Zika virus, Huh-7, pretreated 18-20 h before infection, read-out: ZIKV-CPE MTS Assay EC50, μM, Huh7, Pretreat
  EC50: 341 µM
ZIKV PRVABC59; Zika virus
  EC50: 210 µM
[3]; Zika virus, no pretreat, read-out: ZIKV-CPE MTS Assay EC50, μM, Vero, No pretreat
  EC50: 181 µM
[3]; Zika virus, pretreated 18-20 h before infection, read-out: ZIKV-CPE MTS Assay EC50, μM, Vero, Pretreat
  EC50: 273 µM

## CC1(O)C(O)[C@@H](CO)O[C@H]1n1cc(F)c2c(N)ncnc21 (stereo partly shown) [drawing 83]
DENV-2 [6]
  EC50: 2.6 µM
DENV-2 [7]
  EC50: 8.6 µM

## O=c1nc(NO)ccn1[C@@H]1O[C@H](CO)C(O)C1O (stereo partly shown) [drawing 85]
Zika virus; 0.01 μM
  inhibition at 0.01 µM: 0%
Zika virus; 0.1 μM
  inhibition at 0.1 µM: 5%
Zika virus; 1 μM
  inhibition at 1 µM: 35%
Zika virus; 10 μM
  inhibition at 10 µM: 57%

## CC1(O)C(O)[C@@H](CO)O[C@H]1n1cc(F)c2c(N)ncnc21 (stereo partly shown) [drawing 91]
[8]
  IC50: 33.6 µM
[9]
  IC50: 17.5 µM
[1]; Zika virus, U-251, 120 h, H251 cells, MOI=0.5, five days, read-out: ZIKV CPE MTS Assay IC50 (μM) H251
  IC50: 6.1 µM
[10]
  IC50: > 100 µM
[11]
  IC50: 83.7 µM
[2]; Zika virus, Huh-7, 120 h, MOI=0.5, five days, read-out: ZIKV CPE MTS Assay IC50 (μM) Huh7
  IC50: 1.7 µM
[3]; Zika virus, 96 h, MOI=0.01, four days, read-out: ZIKV CPE MTS Assay IC50 (μM) Vero
  IC50: 5.1 µM

## O=C(O)c1cc(/N=N/c2ccc(S(=O)(=O)Nc3ccccn3)cc2)ccc1O [drawing 106]
[8]
  IC50: > 100 µM
[10]
  IC50: > 100 µM
[11]
  IC50: > 100 µM
[12]
  IC50: > 100 µM

From patent US11963972B2, “Antiviral agents and nucleoside analogs for treatment of Zika virus” (priority 2016, dated 2024)
